The record followed here is patent USRE47689E1, “Compounds for treating spinal muscular atrophy” (PTC Therapeutics, Inc., priority 2011, dated 2019).

As a reminder, the melting point is the temperature, or range, at which the solid turns liquid.

For data set [1], the system named is SMN2 minigene (full length SMN2 minigene mRNA containing SMN2 exon 7). Briefly: SMN2 minigene mRNA splicing RT-qPCR assay in cultured cells. The format is cell-based, human. To be noted: Homo sapiens, HEK293-H; HEK293H cells stably transfected with SMN2-A minigene; 24 hours; 7-point concentration curve; 1.5-fold relative to vehicle-treated cells; read-out: EC1.5x for production of full length SMN2 mRNA. In short, it runs like this:
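HEK293H cells stably carrying the SMN2-A minigene treated 24 h at 37° C with compound (DMSO, 200× stock), then lysed. Multiplex RT-qPCR (SMN primers 0.4 μM final; 40 cycles) measures full-length exon 7-containing minigene mRNA, normalized to GAPDH and to vehicle; EC1.5x derived and binned by stars.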

The next data set deals with Smn protein. Briefly: Smn protein assay in cultured cells (SMN HTRF). The format is cell-based, human. The conditions noted are these: 48 hours; for maximum fold (Fold) increase of Smn protein: SMA patient fibroblast cells, 7-point concentration data, fold increase relative to vehicle control (SMN HTRF); for EC1.5x (concentration giving 1.5-fold Smn protein increase): SMA Type 1 patient fibroblast cells (GM03813), 7-point concentration curve, SMN HTRF, concentration producing 1.5 times Smn protein vs DMSO vehicle control, read-out: EC1.5x for Smn protein expression. In short, it runs like this:
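Lysates in RIPA with protease inhibitors are incubated overnight at room temperature with HTRF anti-SMN antibodies. EC1.5x is derived from fold increase in ΔF over vehicle.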
(In general: TR-FRET usually uses a lanthanide donor and a delayed reading to cut background.)

In turn, `Cc1cn2cc(-c3cc4ccc(CCCNCc5ccsc5)cc4oc3=O)nc2c(C)n1` [Compound 934, 3-(6,8-dimethylimidazo[1,2-a]pyrazin-2-yl)-7-{3-[(thiophen-3-ylmethyl)amino]propyl}-2H-chromen-2-one] showed a melting point of 149 to 152 °C. Also, the EC (1.5-fold) in data set [1] was below 0.1 µM. Moreover, the “maximum fold (Fold) increase of Smn protein” value (shortened to “maximum fold (Fold) increase”) in the data set on Smn protein is “** (fold increase between >1.2 and ≤1.35)”.

In turn, `Cc1cccnc1Nc1cc2ccc(N3CCNCC3)cc2oc1=O` [Compound 61, 3-[(3-methylpyridin-2-yl)amino]-7-(piperazin-1-yl)-2H-chromen-2-one] gave a melting point of 164 to 167 °C. The EC (1.5-fold) in data set [1] is 3 to 30 µM. The “maximum fold (Fold) increase” value with Smn protein was “** (fold increase between >1.2 and ≤1.35)”.

With `Cc1cn2cc(-c3cc4ccc(N5CCC(NC(CO)CO)CC5)cc4oc3=O)nc2c(C)n1` [Compound 929, 7-{4-[(1,3-dihydroxypropan-2-yl)amino]piperidin-1-yl}-3-(6,8-dimethylimidazo[1,2-a]pyrazin-2-yl)-2H-chromen-2-one], the melting point was 251 to 256 °C. Also, the EC (1.5-fold) in data set [1] is below 0.1 µM. Further, in the data set with Smn protein, the EC1.5x (concentration giving 1.5-fold Smn protein increase) lay within 1000 to 3000 nM; the “maximum fold (Fold) increase” value was “*** (fold increase between >1.35 and ≤1.5)”.

`Cc1cn2cc(-c3cc4ccc(N5CCN(CCO)CC5)cc4oc3=O)cc2c(C)n1` [Compound 685, 3-(1,3-dimethylpyrrolo[1,2-a]pyrazin-7-yl)-7-[4-(2-hydroxyethyl)piperazin-1-yl]-2H-chromen-2-one]: the melting point is 160 to 164 °C. The EC (1.5-fold) in data set [1] was below 0.1 µM. In the data set with Smn protein, the EC1.5x (concentration giving 1.5-fold Smn protein increase) was below 300 nM; the “maximum fold (Fold) increase” value is “**** (fold increase between >1.5 and ≤1.65)”.

Turning to `Cc1cn2cc(-c3cc4ccc(N5CCN(C6COC6)CC5)cc4oc3=O)nc2cn1` [Compound 839, 3-(6-methylimidazo[1,2-a]pyrazin-2-yl)-7-[4-(oxetan-3-yl)piperazin-1-yl]-2H-chromen-2-one], the melting point lay in the range of 273 to 276 °C. For the same compound, the EC (1.5-fold) in data set [1] lay within 0.1 to 0.3 µM. Also, in the data set with Smn protein, the EC1.5x (concentration giving 1.5-fold Smn protein increase) was in the range of 300 to 1000 nM; the “maximum fold (Fold) increase” value was “**** (fold increase between >1.5 and ≤1.65)”.

In the case of `Cc1cn2cc(-c3cc4ccc(N5CCCN(C)CC5)cc4oc3=O)nc2c(C)n1` [Compound 519, 3-(6,8-dimethylimidazo[1,2-a]pyrazin-2-yl)-7-(4-methyl-1,4-diazepan-1-yl)-2H-chromen-2-one], the melting point fell in the range of 253 to 255 °C. Besides, in data set [1], the EC (1.5-fold) is below 0.1 µM. Also, in the data set with Smn protein, the EC1.5x (concentration giving 1.5-fold Smn protein increase) is below 300 nM and the “maximum fold (Fold) increase” value is “***** (fold increase >1.65)”.

In turn, `CN(C)Cc1ccc2cc(-c3nc4ccccc4[nH]3)c(=O)oc2c1` [Compound 396, 3-(1H-benzimidazol-2-yl)-7-[(dimethylamino)methyl]-2H-chromen-2-one] returned a melting point of 214 to 218 °C. Besides, the EC (1.5-fold) in data set [1] was 1 to 3 µM. In addition, the “maximum fold (Fold) increase” value in the data set with Smn protein was “** (fold increase between >1.2 and ≤1.35)”.

`CN(C)[C@H]1CCN(c2ccc3cc(-c4cn5cccc(Cl)c5n4)c(=O)oc3c2)C1` [Compound 122, 3-(8-chloroimidazo[1,2-a]pyridin-2-yl)-7-[(3S)-3-(dimethylamino)pyrrolidin-1-yl]-2H-chromen-2-one] returned a melting point of 238 to 241 °C. For the same compound, the EC (1.5-fold) in data set [1] was in the range of 1 to 3 µM. For the same compound, the “maximum fold (Fold) increase” value in the data set with Smn protein is reported as “* (maximum fold increase of ≤1.2)”.

`Cc1cc(F)c2nc(-c3cc4ccc(N5CCNC6(CCCC6)C5)cc4oc3=O)cn2c1` [Compound 599, 7-(6,9-diazaspiro[4.5]dec-9-yl)-3-(8-fluoro-6-methylimidazo[1,2-a]pyridin-2-yl)-2H-chromen-2-one] had a melting point of 236 to 242 °C. Further, in data set [1], the EC (1.5-fold) lay within 0.1 to 0.3 µM. Further, the “maximum fold (Fold) increase” value in the data set on Smn protein is “*** (fold increase between >1.35 and ≤1.5)”.

As to `O=c1oc2cc(N3CCN(CCO)CC3)ccc2cc1-c1cn2cccc(Cl)c2n1` [Compound 121, 3-(8-chloroimidazo[1,2-a]pyridin-2-yl)-7-[4-(2-hydroxyethyl)piperazin-1-yl]-2H-chromen-2-one], the melting point is 247 to 250 °C. For the same compound, the EC (1.5-fold) in data set [1] is 0.3 to 1 µM. In the data set on Smn protein, the “maximum fold (Fold) increase” value is “*** (fold increase between >1.35 and ≤1.5)”.

The compound `CCN1CCC[C@H]2CN(c3ccc4cc(-c5cn6cc(C)nc(C)c6n5)c(=O)oc4c3)C[C@H]21` [Compound 803, 3-(6,8-dimethylimidazo[1,2-a]pyrazin-2-yl)-7-[(4aS,7aS)-1-ethyloctahydro-6H-pyrrolo[3,4-b]pyridin-6-yl]-2H-chromen-2-one] yielded a melting point of 217 to 221 °C. The EC (1.5-fold) in data set [1] is below 0.1 µM. Moreover, the “maximum fold (Fold) increase” value with Smn protein was “*** (fold increase between >1.35 and ≤1.5)”.

In turn, `O=c1oc2cc(N3CCNCC3)cc(F)c2cc1-c1cc(F)cc(F)c1` [Cpd 290, 3-(3,5-difluorophenyl)-5-fluoro-7-(piperazin-1-yl)-2H-chromen-2-one] yielded a melting point of 193 to 198 °C. Also, in data set [1], the EC (1.5-fold) lay in the range of 0.3 to 1 µM. The “maximum fold (Fold) increase” value in the data set on Smn protein is “* (maximum fold increase of ≤1.2)”.

As to `Cc1csc(-c2cc3ccc(N4CCNC(C)(C)C4)cc3oc2=O)n1` [Compound 301, 7-(3,3-dimethylpiperazin-1-yl)-3-(4-methyl-1,3-thiazol-2-yl)-2H-chromen-2-one], the melting point fell in the range of 204 to 209 °C. Moreover, in data set [1], the EC (1.5-fold) was in the range of 1 to 3 µM. The “maximum fold (Fold) increase” value with Smn protein is given as “* (maximum fold increase of ≤1.2)”.

`CCc1cn2cc(-c3cc4ccc(N5CCCNCC5)cc4oc3=O)nc2s1` [Compound 430, 7-(1,4-diazepan-1-yl)-3-(2-ethylimidazo[2,1-b][1,3]thiazol-6-yl)-2H-chromen-2-one] had a melting point of 185 to 189 °C. The EC (1.5-fold) in data set [1] lay in the range of 1 to 3 µM. In addition, the “maximum fold (Fold) increase” value in the data set on Smn protein is given as “* (maximum fold increase of ≤1.2)”.

In turn, `CN1CCCN(c2ccc3cc(-c4cn5cccc(Cl)c5n4)c(=O)oc3c2)CC1` [Compound 280, 3-(8-chloroimidazo[1,2-a]pyridin-2-yl)-7-(4-methyl-1,4-diazepan-1-yl)-2H-chromen-2-one] had a melting point of 161 to 163 °C. For the same compound, the EC (1.5-fold) in data set [1] was in the range of 0.1 to 0.3 µM. Moreover, the “maximum fold (Fold) increase” value in the data set on Smn protein is “*** (fold increase between >1.35 and ≤1.5)”.

The compound `Cc1cn2cc(-c3cc4c(F)cc(N5CCCN(C)CC5)cc4oc3=O)nc2c(C)n1` [Compound 614, 3-(6,8-dimethylimidazo[1,2-a]pyrazin-2-yl)-5-fluoro-7-(4-methyl-1,4-diazepan-1-yl)-2H-chromen-2-one] gave a melting point of 223 to 225 °C. The EC (1.5-fold) in data set [1] was below 0.1 µM. In addition, in the data set on Smn protein, the EC1.5x (concentration giving 1.5-fold Smn protein increase) was below 300 nM and the “maximum fold (Fold) increase” value is “***** (fold increase >1.65)”.

As to `COc1cccc(-c2cc3c(F)cc(N4CCN[C@@H](C)C4)cc3oc2=O)n1` [Compound 469, 5-fluoro-3-(6-methoxypyridin-2-yl)-7-[(3S)-3-methylpiperazin-1-yl]-2H-chromen-2-one], the melting point lay in the range of 199 to 201 °C. In addition, the EC (1.5-fold) in data set [1] is 0.1 to 0.3 µM. The “maximum fold (Fold) increase” value with Smn protein was “** (fold increase between >1.2 and ≤1.35)”.

Compound `C[C@@H]1CN(c2ccc3cc(C(=O)Nc4ccccc4)c(=O)oc3c2)C[C@H](C)N1` [Compound 30, 7-[(3R,5S)-3,5-dimethylpiperazin-1-yl]-2-oxo-N-phenyl-2H-chromene-3-carboxamide] showed a melting point of 231 to 233 °C. Besides, the EC (1.5-fold) in data set [1] fell in the range of 1 to 3 µM. Moreover, in the data set with Smn protein, the “maximum fold (Fold) increase” value is listed as “* (maximum fold increase of ≤1.2)”.

`Cc1cn2cc(-c3cc4ccc(CCCN5CCN(C)CC5)cc4oc3=O)nc2c(C)n1` [Compound 860, 3-(6,8-dimethylimidazo[1,2-a]pyrazin-2-yl)-7-[3-(4-methylpiperazin-1-yl)propyl]-2H-chromen-2-one] returned a melting point of 219 to 223 °C. Also, in data set [1], the EC (1.5-fold) was in the range of 0.3 to 1 µM. In the data set on Smn protein, the EC1.5x (concentration giving 1.5-fold Smn protein increase) is 1000 to 3000 nM; the “maximum fold (Fold) increase” value is “**** (fold increase between >1.5 and ≤1.65)”.

For `CCc1ccn2cc(-c3cc4ccc(N5CCNCC5)cc4oc3=O)nc2c1` [Compound 287, 3-(7-ethylimidazo[1,2-a]pyridin-2-yl)-7-(piperazin-1-yl)-2H-chromen-2-one], the melting point fell in the range of 253 to 263 °C. Further, the EC (1.5-fold) in data set [1] lay in the range of 0.3 to 1 µM. Also, the “maximum fold (Fold) increase” value with Smn protein is “* (maximum fold increase of ≤1.2)”.

With `O=c1oc2cc(N3C[C@@H]4C[C@H]3CN4)ccc2cc1-c1nc(C(F)(F)F)cs1` [Compound 266, 7-[(1S,4S)-2,5-diazabicyclo[2.2.1]hept-2-yl]-3-[4-(trifluoromethyl)-1,3-thiazol-2-yl]-2H-chromen-2-one], the melting point is 211 to 220 °C. For the same compound, in data set [1], the EC (1.5-fold) lay in the range of 1 to 3 µM. In addition, in the data set with Smn protein, the “maximum fold (Fold) increase” value was “* (maximum fold increase of ≤1.2)”.

`O=c1oc2cc(CN3CCCCC3)ccc2cc1-c1nc2ccccc2s1` [Compound 59, 3-(1,3-benzothiazol-2-yl)-7-(piperidin-1-ylmethyl)-2H-chromen-2-one] returned a melting point of 201 to 205 °C. For the same compound, the EC (1.5-fold) in data set [1] fell in the range of 1 to 3 µM. Moreover, in the data set with Smn protein, the “maximum fold (Fold) increase” value is “** (fold increase between >1.2 and ≤1.35)”.
